# Experimental data reported in patent publication US9670202B2, “Substituted triazolopyridines” (BAYER PHARMA AKTIENGESELLSCHAFT, priority 2013, dated 2017).
# Counter-ions that a name gives are not always drawn.
# Target: human kinase Mps-1 (Homo sapiens (Human), UniProt P33981)
# Experiment: Mps-1 kinase assay (TR-FRET, 10 μM ATP)
# Assay type: biochemical
# Settings: N-terminally GST-tagged human full length recombinant Mps-1, read-out: Mps-1 Inhibition, IC50 (Assay with 10 μM ATP)
# Experimental: The human kinase Mps-1 phosphorylates a biotinylated substrate peptide. Detection of the phosphorylated product is achieved by time-resolved fluorescence resonance energy transfer (TR-FRET) from Europium-labelled anti-phospho-Serine/Threonine antibody as donor to streptavidin labelled with cross-linked allophycocyanin (SA-XLent) as acceptor. Compounds are tested for their inhibition of the kinase activity.
# N-terminally GST-tagged human full length recombinant Mps-1 kinase (purchased from Invitrogen, Karslruhe, Germany, cat. no PV4071) was used. As substrate for the kinase reaction a biotinylated peptide of the amino-acid sequence […]
# The concentration of Mps-1 in the assay was adjusted to the activity of the enzyme lot and was chosen appropriate to have the assay in the linear range, typical enzyme concentrations were in the range of about 1 nM (final conc. in the 5 μl assay volume).
# The resulting mixture was incubated 1 h at 22° C. to allow the binding of the phosphorylated peptide to the anti-phospho(Ser/Thr)-Europium-antibody. Subsequently the amount of phosphorylated substrate was evaluated by measurement of the resonance energy transfer from the Europium-labelled anti-phospho(Ser/Thr) antibody to the Streptavidin-XLent. Therefore, the fluorescence emissions at 620 nm and 665 nm after excitation at 350 nm was measured in a Viewlux TR-FRET reader (PerkinElmer LAS, Rodgau-Jügesheinn, Germany). The “blank-corrected normalized ratio” (a Viewlux specific readout, similar to the traditional ratio of the emissions at 665 nm and at 622 nm, in which blank and Eu-donor crosstalk are subtracted from the 665 nm signal before the ratio is calculated) was taken as the measure for the amount of phosphorylated substrate.
# Chain of human kinase Mps-1 (P33981 whole entry): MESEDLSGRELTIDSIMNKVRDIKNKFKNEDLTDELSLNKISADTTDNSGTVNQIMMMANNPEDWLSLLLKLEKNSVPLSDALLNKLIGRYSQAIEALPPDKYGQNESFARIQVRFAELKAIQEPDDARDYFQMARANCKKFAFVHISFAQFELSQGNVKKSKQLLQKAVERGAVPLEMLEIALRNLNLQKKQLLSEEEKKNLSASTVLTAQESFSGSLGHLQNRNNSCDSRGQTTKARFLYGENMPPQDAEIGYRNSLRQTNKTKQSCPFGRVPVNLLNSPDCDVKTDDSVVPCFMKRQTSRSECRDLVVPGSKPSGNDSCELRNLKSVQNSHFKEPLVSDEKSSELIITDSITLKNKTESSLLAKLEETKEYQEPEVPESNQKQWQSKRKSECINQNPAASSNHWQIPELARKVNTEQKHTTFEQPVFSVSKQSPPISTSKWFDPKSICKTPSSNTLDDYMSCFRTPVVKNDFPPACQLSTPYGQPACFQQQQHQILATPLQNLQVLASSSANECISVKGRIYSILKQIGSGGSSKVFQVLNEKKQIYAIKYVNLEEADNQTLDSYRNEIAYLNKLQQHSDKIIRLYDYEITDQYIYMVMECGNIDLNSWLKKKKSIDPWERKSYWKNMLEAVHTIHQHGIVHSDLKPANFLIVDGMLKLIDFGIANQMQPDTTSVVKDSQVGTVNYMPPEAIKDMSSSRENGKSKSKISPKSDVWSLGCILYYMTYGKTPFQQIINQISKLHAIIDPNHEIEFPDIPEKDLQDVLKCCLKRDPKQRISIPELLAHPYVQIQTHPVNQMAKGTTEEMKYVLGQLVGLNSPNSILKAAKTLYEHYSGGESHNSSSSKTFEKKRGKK
row,SMILES,IC50 [nM]
1,"N#Cc1ccccc1Nc1nc2ccc(N3CCN(C(=O)NCc4ccc(F)cc4)CC3)cn2n1 [Example 01.14, 4-{2-[(2-cyanophenyl)amino][1,2,4]triazolo[1,5-a]pyridin-6-yl}-N-(4-fluoro-benzyl)piperazine-1-carboxamide]",8
2,"CCN(CC)C(=O)c1ccc(Nc2nc3ccc(N4CCN(C(=O)NCc5ccc(F)cc5)CC4)cn3n2)c(OCCOC)c1 [Example 01.08, 4-(2-{[4-(diethylcarbamoyl)-2-(2-methoxyethoxy)phenyl]amino}[1,2,4]-triazolo[1,5-a]pyridin-6-yl)-N-(4-fluorobenzyl)piperazine-1-carboxamide]",57
3,"CCN(CC)C(=O)c1ccc(Nc2nc3ccc(N4CCN(C(=O)NCc5ccc(F)cc5)CC4)cn3n2)c(OC)c1 [Example 01.03, 4-(2-{[4-(diethylcarbamoyl)-2-methoxyphenyl]amino}[1,2,4]triazolo[1,5-a]pyridin-6-yl)-N-(4-fluorobenzyl)piperazine-1-carboxamide]",7.9
4,"COc1ncccc1Nc1nc2ccc(N3CCN(C(=O)NCc4ccc(F)cc4)CC3)cn2n1 [Example 01.12, N-(4-fluorobenzyl)-4-{2-[(2-methoxypyridin-3-yl)amino][1,2,4]triazolo[1,5-a]pyridin-6-yl}piperazine-1-carboxamide]",18.6
5,"COc1cc(N2CCN(C)CC2)ccc1Nc1nc2ccc(N3CCN(C(=O)NCc4ccc(F)cc4)CC3)cn2n1 [Example 01.10, N-(4-fluorobenzyl)-4-(2-{[2-methoxy-4-(4-methylpiperazin-1-yl)phenyl]-amino}[1,2,4]triazolo[1,5-a]pyridin-6-yl)piperazine-1-carboxamide]",9.2
6,"CCOc1cc(C(=O)N2CCOCC2)ccc1Nc1nc2ccc(N3CCC(C(=O)NCc4ccc(F)cc4)CC3)cn2n1 [Example 02.01, 1-(2-{[2-ethoxy-4-(morpholin-4-ylcarbonyl)phenyl]amino}[1,2,4]triazolo-[1,5-a]pyridin-6-yl)-N-(4-fluorobenzyl)piperidine-4-carboxamide]",32.2
7,"CCNC(=O)c1ccc(Nc2nc3ccc(N4CCN(C(=O)NCc5ccc(F)cc5)CC4)cn3n2)c(OCC)c1 [Example 01.01, 4-(2-{[2-ethoxy-4-(ethylcarbamoyl)phenyl]amino}[1,2,4]triazolo[1,5-a]-pyridin-6-yl)-N-(4-fluorobenzyl)piperazine-1-carboxamide]",3.1
8,"CCN(CC)C(=O)c1ccc(Nc2nc3ccc(N4CCN(C(=O)NCc5ccc(F)cc5)CC4)cn3n2)c(OCC(F)(F)F)c1 [Example 01.09, 4-(2-{[4-(diethylcarbamoyl)-2-(2,2,2-trifluoroethoxy)phenyl]amino}[1,2,4]-triazolo[1,5-a]pyridin-6-yl)-N-(4-fluorobenzyl)piperazine-1-carboxamide trifluoroacetate]",1.7
9,"CCOc1cc(C(=O)N2CCOCC2)ccc1Nc1nc2ccc(N3CCN(C(=O)NCc4ccc(F)cc4)CC3)cn2n1 [Example 01.04, 4-(2-{[2-ethoxy-4-(morpholin-4-ylcarbonyl)phenyl]amino}[1,2,4]triazolo-[1,5-a]pyridin-6-yl)-N-(4-fluorobenzyl)piperazine-1-carboxamide]",2.6
10,"CCCOc1cc(C(=O)N(CC)CC)ccc1Nc1nc2ccc(N3CCN(C(=O)NCc4ccc(F)cc4)CC3)cn2n1 [Example 01.05, 4-(2-{[4-(diethylcarbamoyl)-2-propoxyphenyl]amino}[1,2,4]triazolo[1,5-a]pyridin-6-yl)-N-(4-fluorobenzyl)piperazine-1-carboxamide]",9.7
11,"CCN(CC)C(=O)c1ccc(Nc2nc3ccc(N4CCN(C(=O)NCc5ccc(F)cc5)CC4)cn3n2)c(OCC(C)C)c1 [Example 01.06, 4-(2-{[4-(diethylcarbamoyl)-2-(2-methylpropoxy)phenyl]amino}[1,2,4]-triazolo[1,5-a]pyridin-6-yl)-N-(4-fluorobenzyl)piperazine-1-carboxamide trifluoroacetate]",28.5
12,"CCN(CC)C(=O)c1ccc(Nc2nc3ccc(N4CCN(C(=O)NCc5ccc(F)cc5)CC4)cn3n2)c(OCC2CC2)c1 [Example 01.07, 4-(2-{[2-(cyclopropylmethoxy)-4-(diethylcarbamoyl)phenyl]amino}[1,2,4]-triazolo[1,5-a]pyridin-6-yl)-N-(4-fluorobenzyl)piperazine-1-carboxamide]",20.6
13,"CC(C)(C)NC(=O)c1ccc(Nc2nc3ccc(N4CCN(C(=O)NCc5ccc(F)cc5)CC4)cn3n2)c(OCC(F)(F)F)c1 [Example 01.02, 4-(2-{[4-(tert-butylcarbamoyl)-2-(2,2,2-trifluoroethoxy)phenyl]amino}-[1,2,4]triazolo[1,5-a]pyridin-6-yl)-N-(4-fluorobenzyl)piperazine-1-carboxamide]",5.6
14,"CCOc1ncccc1Nc1nc2ccc(N3CCN(C(=O)NCc4ccc(F)cc4)CC3)cn2n1 [Example 01.13, 4-{2-[(2-ethoxypyridin-3-yl)amino][1,2,4]triazolo[1,5-a]pyridin-6-yl}-N-(4-fluorobenzyl)piperazine-1-carboxamide]",8.9
15,"COc1cc(Nc2nc3ccc(N4CCN(C(=O)NCc5ccc(F)cc5)CC4)cn3n2)ccc1C(=O)N1CCOCC1 [Example 01.11, N-(4-fluorobenzyl)-4-(2-{[3-methoxy-4-(morpholin-4-ylcarbonyl)phenyl]-amino}[1,2,4]triazolo[1,5-a]pyridin-6-yl)piperazine-1-carboxamide]",45.6

# Other lines, results leading:
row,IC50 [nM],SMILES
1,67.8,"CCOc1cc(C(=O)N2CCOCC2)ccc1Nc1nc2ccc(N3CCC(C(=O)NCC4CC4)CC3)cn2n1 [Example 03.02, N-(cyclopropylmethyl)-1-(2-{[2-ethoxy-4-(morpholin-4-ylcarbonyl)phenyl]-amino}[1,2,4]triazolo[1,5-a]pyridin-6-yl)piperidine-4-carboxamide]"
2,7.1,"CCNC(=O)c1ccc(Nc2nc3ccc(N4CCC(NC(=O)Cc5ccc(F)cc5)CC4)cn3n2)c(OCC)c1 [Example 04.01, 3-ethoxy-N-ethyl-4-{[6-(4-{[(4-fluorophenyl)acetyl]amino}piperidin-1-yl)-[1,2,4]triazolo[1,5-a]pyridin-2-yl]amino}benzamide]"
3,12.8,"CCOc1cc(C(=O)N2CCOCC2)ccc1Nc1nc2ccc(N3CCC(NC(=O)Cc4ccc(F)cc4)CC3)cn2n1 [Example 04.02, N-[1-(2-{[2-ethoxy-4-(morpholin-4-ylcarbonyl)phenyl]amino}[1,2,4]-triazolo[1,5-a]pyridin-6-yl)piperidin-4-yl]-2-(4-fluorophenyl)acetamide]"
4,68.8,"CCNC(=O)c1ccc(Nc2nc3ccc(N4CCC(C(=O)NCC5CC5)CC4)cn3n2)c(OCC)c1 [Example 03.01, N-(cyclopropylmethyl)-1-(2-{[2-ethoxy-4-(ethylcarbamoyl)phenyl]amino}-[1,2,4]triazolo[1,5-a]pyridin-6-yl)piperidine-4-carboxamide]"
5,46.9,"O=C(NCc1ccc(F)cc1)NC1CCN(c2ccc3nc(Nc4ccc(C(=O)N5CCOCC5)cc4OCC(F)(F)F)nn3c2)C1 (stereo not drawn) [Example 05.01, 1-(4-fluorobenzyl)-3-[1-(2-{[4-(morpholin-4-ylcarbonyl)-2-(2,2,2-trifluoroethoxy)phenyl]amino}[1,2,4]triazolo[1,5-a]pyridin-6-yl)pyrrolidin-3-yl]urea]"
6,32.8,"CCOc1ncccc1Nc1nc2ccc(N3CCC(NC(=O)Cc4ccc(F)cc4)CC3)cn2n1 [Example 04.03, N-(1-{2-[(2-ethoxypyridin-3-yl)amino][1,2,4]triazolo[1,5-a]pyridin-6-yl}-piperidin-4-yl)-2-(4-fluorophenyl)acetamide]"
